This note sets out measurements from patent publication US20250043299A1, “POINT MUTATIONS THAT BOOST AROMATIC AMINO ACID PRODUCTION AND CO2 ASSIMILATION IN PLANTS” (Wisconsin Alumni Research Foundation, priority 2021, published 2025).

Where “and” joins values, the source holds several entries; their conditions need not be identical. Equal entries are not always repeated.

Assay [1] deals with DHS3^H1. Briefly: DHS enzyme assay, recombinant DHS3^H1. Format: biochemical, Arabidopsis thaliana. The method, then: (§1) To generate DHS proteins with individual sota mutations via site-directed mutagenesis, these pET28a plasmid templates were diluted by 500-fold, mixed with 0.04 U/μL Phusion DNA polymerase (Thermo Scientific), 0.2 mM deoxynucleoside triphosphates (dNTPs), 1× Phusion reaction buffer (Thermo Scientific), and 0.5 μM forward and reverse mutagenesis primers (Table 10). The PCR reaction was run using the following protocol: 98° C. for 30 s followed by 20 cycles of 10 s at 98° C., 20 s at 70° C., 4.5 min at 72° C. with a final extension at 72° C. for 10 min. The PCR products were purified using a QIAquick Gel Extraction Kit (QIAGEN), treated with FastDigest DpnI (Thermo Scientific) to digest methylated plasmid template DNA for 20 min at 37° C., and transformed into E. coli cells. The mutagenized pET28a plasmids were sequenced to confirm that no errors were introduced during the mutagenesis process.
(§2) The DHS enzyme assays were conducted using the colorimetric method that we recently described (9). Briefly, the enzyme solution (7.7 μl) containing 50 mM Hepes (pH 7.4) was preincubated with an effector molecule(s) at room temperature for 15 min. For assays using recombinant protein and enzyme fractions isolated from plant leaves, 0.01 to 0.1 μg and approximately 50 μg of proteins were used, respectively. After adding 0.5 μl of 0.1 M dithiothreitol, the samples were further incubated at room temperature for 15 min. During these incubations, the substrate solution containing 50 mM Hepes (pH 7.4), 2 mM MnCl2, 4 mM E4P, and 4 mM PEP at final concentration was preheated at 37° C. The enzyme reaction was started by adding 6.8 μl of the substrate solution, then incubated at 37° C. for 30 min, and terminated by adding 30 μl of 0.6 M trichloroacetic acid. After a brief centrifugation, 5 μl of 200 mM NaIO4 (sodium meta-periodate) in 9 N H3PO4 was added to oxidize the enzymatic product and to incubate at 25° C. for 20 min. To stop the oxidation reaction, 20 μl of 0.75 M NaAsO2 (sodium arsenite), which was dissolved in 0.5 M Na2SO4 and 0.05 M H2SO4, was added and immediately mixed. […]

In assay [2] the target is DHS3^G1. Nature of the assay: DHS enzyme assay, recombinant DHS3^G1. Format: biochemical, Arabidopsis thaliana. How it is done: as §1, §2
Assay [3] has as its system all DHS^WT isoforms. Nature of the assay: DHS enzyme assay, summary over all DHS^WT isoforms. Format: biochemical, Arabidopsis thaliana. The settings on record: for inhibition of all DHS^WT isoforms: FIG. 2D. How it is done:
as §1, with “To generate recombinant DHS proteins the pET28a vectors carrying the A. thaliana DHS1 (AtDHS1), AtDHS2, or AtDHS3 WT sequence without the predicted plastid transit peptide (amino acid residues; 49-525, 34-507, and 52-527, respectively) were expressed in E. coli Rosetta-2 cells and purified using Ni-affinity chromatography, exactly as was conducted previously (9). To” for “To”
The DHS enzyme assays were conducted using the colorimetric method that we recently described (9). Briefly, the enzyme solution (7.7 μl) containing 50 mM Hepes (pH 7.4) was preincubated with an effector molecule(s) at room temperature for 15 min. For assays using recombinant protein and enzyme fractions isolated from plant leaves, 0.01 to 0.1 μg and approximately 50 μg of proteins were used, respectively. After adding 0.5 μl of 0.1 M dithiothreitol, the samples were further incubated at room temperature for 15 min. […] The absorbance of the pink supernatant was read at 549 nm with the microplate reader (Infinite 200 PRO, TECAN) to calculate DAHP production with the molar extinction coefficient at 549 nm (ε=549 nm) of 4.5×10^4 M^−1 cm^−1. […]

In assay [4] the target is DHS3^WT. Nature of the assay: DHS enzyme assay, recombinant DHS3^WT. To be noted: read-out: IC50 of effector molecule on DHS3^WT. Format: biochemical, Arabidopsis thaliana. How it is done:
as §1
(§3) The DHS enzyme assays were conducted using the colorimetric method that we recently described (9). Briefly, the enzyme solution (7.7 μl) containing 50 mM Hepes (pH 7.4) was preincubated with an effector molecule(s) at room temperature for 15 min. For assays using recombinant protein and enzyme fractions isolated from plant leaves, 0.01 to 0.1 μg and approximately 50 μg of proteins were used, respectively. […]

The target in assay [5] is T1, Arabidopsis thaliana DHS2 (AtDHS2), wild type (DHS2^WT), SEQ ID NO:2 (Arabidopsis thaliana, UniProt Q00218).
T1 construct: without the predicted plastid transit peptide (amino acid residues; 49-525, 34-507, and 52-527, respectively); made in house; host or cells: E. coli Rosetta-2
T1 sequence (Q00218 34-507): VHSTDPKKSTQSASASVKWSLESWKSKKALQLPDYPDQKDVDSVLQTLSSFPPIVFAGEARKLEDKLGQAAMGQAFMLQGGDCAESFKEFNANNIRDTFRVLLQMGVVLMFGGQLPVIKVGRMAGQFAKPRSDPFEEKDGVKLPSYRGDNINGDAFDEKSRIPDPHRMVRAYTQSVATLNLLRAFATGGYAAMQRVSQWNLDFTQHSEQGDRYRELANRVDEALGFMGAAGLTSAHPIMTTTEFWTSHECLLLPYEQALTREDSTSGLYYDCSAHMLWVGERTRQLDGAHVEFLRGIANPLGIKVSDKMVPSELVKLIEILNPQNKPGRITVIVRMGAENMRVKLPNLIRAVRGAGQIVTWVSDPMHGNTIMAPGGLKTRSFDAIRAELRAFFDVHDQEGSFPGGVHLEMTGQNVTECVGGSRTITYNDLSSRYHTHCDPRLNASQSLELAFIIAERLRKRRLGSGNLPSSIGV
Briefly: DHS enzyme assay with effector, Arabidopsis DHS2 WT. Format: biochemical. To be noted: 4 mM E4P, 4 mM PEP, pH 7.4, 37° C. How it is done: as §1, §3

As to `N[C@@H](Cc1c[nH]c2ccccc12)C(=O)O` [Trp, tryptophan], in assay [1], the “IC50 of effector molecule on DHS3^H1” value is “Not inhibited”. In addition, the “IC50 of effector molecule on DHS3^G1” value in assay [2] is “Not inhibited”.

With `O=C(O)Cc1cc(O)ccc1O` [HGA, homogentisate], the “inhibition of all DHS^WT isoforms” value in assay [3] was “effectively inhibited”. Besides, the IC50 (in general, the concentration that inhibits the measured activity by half) in assay [3] (range over the three isoforms) was 75 to 250 µM; in assay [1] (read-out: IC50 of effector molecule on DHS3^H1) it was 405 µM; in assay [4], 102 µM; in assay [2] (read-out: IC50 of effector molecule on DHS3^G1) it was 375 µM.

On to `O=C(O)C(=O)Cc1ccc(O)cc1` [HPP, 4-Hydroxyphenylpyruvate], for which the “inhibition of all DHS^WT isoforms” value in assay [3] is recorded as “effectively inhibited”. In addition, the values for the IC50 in assay [4] and in assay [5] were 516 µM and 48.4 µM, respectively.

In the case of `O=C(O)C(=O)Cc1c[nH]c2ccccc12` [IPA, indole-3-pyruvate], in assay [5], the IC50 is 58 µM and 58.3 µM.
